A short description of one data set: Solubility. Format: physicochemical.
The subject of data set [1] is Candida albicans TIMM1623. Kind of data set: MIC assay of anti-fungal activity in vitro, Candida albicans TIMM1623. The class given is cell-based. Particulars: 24 h, C. albicans TIMM1623, Yeast Morphology Ager, serial double dilution, 30° C., 1 day. The protocol:
(§1) In the following, examples of anti-fungal assays are described.
(§2) In the assay standard microbial strains supplied from Research Center for Eumyceta and Mycosis, Teikyo University, Japan, were used as the test fungi, and Yeast Morphology Ager (DIFCO) was used as the medium for the drug sensitivity assays.
(§3) Firstly, the given fungus was smeared on the potato-dextrose agar media (Nissui Seiyaku) slants, incubated at 30° C. for 1 day (for Candida albicans and Cryptococcus neoformans) or for 4 days (for Aspergillus nigar and Aspergillus fumigatus), and then the fungus grown on the slant was washed out with a sterilized physiological salt solution containing 0.1% Tween 80. The washed out fungus was passed through a filter with 15 μm bores, and, after the number of fungus colonies were counted on the blood cell counting plate, a suspension containing 10^5 CFU/ml of fungus was prepared to be used as the inoculation solution. After this solution (0.02 ml) was inoculated to Yeast Morphology Ager containing a drug at concentrations in a serial double dilution, it was cultured at 30° C. for either 1 day or 4 days.
(§4) MIC assay of cryptoporic acid H was carried out by the similar procedure as described above.

In data set [2] the test system is Aspergillus niger TIMM0113. Kind of data set: MIC assay of anti-fungal activity in vitro, Aspergillus niger TIMM0113. Format: cell-based. Particulars: 96 h, A. niger TIMM0113, Yeast Morphology Ager, serial double dilution, 30° C., 4 days. As for the experimental part:
as §1, §2, §3, §4

Data set [3] has as its system Aspergillus fumigatus TIMM0063. Kind of data set: MIC assay of anti-fungal activity in vitro, Aspergillus fumigatus TIMM0063. Format: cell-based. The following applies: 96 h, A. fumigatus TIMM0063, Yeast Morphology Ager, serial double dilution, 30° C., 4 days. The protocol:
as §1, §2, §3, §4

Data set [4] relates to Saccharomyces cerevisiae JCM2216. Kind of data set: MIC assay, Saccharomyces cerevisiae JCM2216. The following applies: similar procedure as described above. The class given is cell-based.
The subject of a further data set is C. neoformans TIMM0354. Kind of data set: MIC assay of anti-fungal activity in vitro, Cryptococcus neoformans TIMM0354. Format: cell-based. Particulars: 24 h, Yeast Morphology Ager, serial double dilution, 30° C., 1 day. As for the experimental part:
as §1, §2, §3

In data set [5] the test system is Candida albicans, Cryptococcus neoformans, Aspergillus nigar and Aspergillus fumigatus. Kind of data set: anti-microbial activity in vitro against test fungi (overall statement). Format: cell-based. Particulars: stated in words. The protocol:
as §1, §2, §3

Where [6] appears, read: in methanol, acetone, and ethyl acetate.

≈ marks a conversion by molar mass, not a printed value.

On to `C=C1CC[C@H]2C(C)(C)CCC[C@]2(C)[C@H]1COC(C(=O)O[C@H]1CC(C)(C)[C@@H]2CC=C3COC(O)[C@@H]3[C@@]2(C)C1)C(CC(=O)O)C(=O)OC` (some centres unmarked) [TG104], for which the Solubility result in the data set “Solubility” (in chloroform) is “soluble”; in “Solubility” (setting [6]) it was “readily soluble”; in the data set “Solubility” (in water), “slightly soluble”.

With `C=C1CC[C@H]2C(C)(C)CCC[C@]2(C)[C@H]1COC(C(=O)O[C@H]1CC(C)(C)[C@@H]2CC=C(C=O)[C@H](C=O)[C@@]2(C)C1)C(CC(=O)O)C(=O)OC` (some centres unmarked) [TG102], the Solubility entry was “soluble” in “Solubility” (in chloroform), “readily soluble” in the data set “Solubility” (setting [6]) and “slightly soluble” in the data set “Solubility” (in water).

For the compound `C=C1CC[C@H]2C(C)(C)CCC[C@]2(C)[C@H]1COC(C(=O)O)C(CC(=O)O)C(=O)O` (some centres unmarked) [Cryptoporic acid H, cryptoporic acid H], the MIC in data set [1], in data set [2], in data set [3] and in data set [4] was 200 µg/mL (≈ 504 µM) each time.

As for `C=C1CC[C@H]2C(C)(C)CCC[C@]2(C)[C@H]1COC(C(=O)OC)C(CC(=O)O)C(=O)O[C@H]1CC(C)(C)[C@@H]2CC=C(C=O)[C@H](C=O)[C@@]2(C)C1` (some centres unmarked) [TG101], the MIC in data set [1] was determined as 100 µg/mL (≈ 156 µM); against C. neoformans TIMM0354, 50 µg/mL (≈ 77.8 µM); in data set [2], 50 µg/mL (≈ 77.8 µM); in data set [3] it was 50 µg/mL (≈ 77.8 µM). In addition, the anti-fungal activities entry in data set [5] is listed as “confirming their anti-fungal activities”. The Solubility entry in “Solubility” (in chloroform) was “soluble”; in “Solubility” (setting [6]), “readily soluble”; in “Solubility” (in water), “slightly soluble”.

For the compound `C=C1CC[C@H]2C(C)(C)CCC[C@]2(C)[C@H]1COC(C(=O)OC)C(CC(=O)O)C(=O)O[C@H]1CC(C)(C)[C@@H]2CC=C3COC(O)[C@@H]3[C@@]2(C)C1` (some centres unmarked) [TG103], the MIC in data set [1] came to 100 µg/mL (≈ 155 µM); against C. neoformans TIMM0354, 50 µg/mL (≈ 77.5 µM); in data set [2], 100 µg/mL (≈ 155 µM); in data set [3] it was 25 µg/mL (≈ 38.8 µM). Further, the anti-fungal activities result in data set [5] was “confirming their anti-fungal activities”. Further, the results for the Solubility result in the data set “Solubility” (in chloroform), in the data set “Solubility” (setting [6]) and in “Solubility” (in water) were “soluble”, “readily soluble” and “slightly soluble”, respectively.
